Assay results: ChEMBL document CHEMBL1201862, “PubChem BioAssay data set” (2004)
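How tested: cells in 96-well plates exposed to compound for 48 hours at five concentrations. At the GI50, growth is halved.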 Calls of active or inactive are those of the source. Rule as the data show it: active = GI50 up to about 1.1 µM and inactive = higher.

Experiments:
Test in all cases: NCI-60 cell line screen, 48 h
CCRF-CEM = system: CCRF-CEM
DU-145 = system: DU-145
EKVX = system: EKVX
Hs-578T = system: Hs-578T
IGROV-1 = system: IGROV-1
K562 = system: K562
M14 = system: M14
MDA-MB-231 = system: MDA-MB-231
MDA-MB-435 = system: MDA-MB-435
MOLT-4 = system: MOLT-4
NCI-H23 = system: NCI-H23
NCI-H522 = system: NCI-H522
NCI/ADR-RES = system: NCI/ADR-RES
OVCAR-4 = system: OVCAR-4
OVCAR-5 = system: OVCAR-5
SF-539 = system: SF-539
SNB-75 = system: SNB-75
SR = system: SR
T47D = system: T47D
UACC-62 = system: UACC-62

Row | SMILES | GI50 (CCRF-CEM) | GI50 (DU-145) | GI50 (EKVX) | GI50 (Hs-578T) | GI50 (IGROV-1) | GI50 (K562) | GI50 (M14) | GI50 (MDA-MB-231) | GI50 (MDA-MB-435) | GI50 (MOLT-4) | GI50 (NCI-H23) | GI50 (NCI-H522) | GI50 (NCI/ADR-RES) | GI50 (OVCAR-4) | GI50 (OVCAR-5) | GI50 (SF-539) | GI50 (SNB-75) | GI50 (SR) | GI50 (T47D) | GI50 (UACC-62)
1 | N#Cc1nc(CCc2nc(C#N)c(N)o2)oc1N | > 10 µM (inactive) | > 10 µM (inactive) | > 10 µM (inactive) | > 10 µM (inactive) | > 10 µM (inactive) | > 10 µM (inactive) | > 10 µM (inactive) | > 10 µM (inactive) | > 10 µM (inactive) | > 10 µM (inactive) | > 10 µM (inactive) | > 10 µM (inactive) | > 10 µM (inactive) | > 10 µM (inactive) | > 10 µM (inactive) | > 10 µM (inactive) | > 10 µM (inactive) | > 10 µM (inactive) | > 10 µM (inactive) | > 10 µM (inactive)
2 | CCN(CC)C1C(=O)NC1C#Cc1ccccc1 (stereo not given) | 32 µM (inactive) | > 100 µM (inactive) | > 100 µM (inactive) | > 100 µM (inactive) | 67.5 µM (inactive) | 42.3 µM (inactive) | > 100 µM (inactive) | > 100 µM (inactive) | 40.8 µM (inactive) | > 10 µM (inactive) | 71.4 µM (inactive) | 25 µM (inactive) | > 100 µM (inactive) | > 100 µM (inactive) | > 100 µM (inactive) | > 100 µM (inactive) | > 100 µM (inactive) | 32 µM (inactive) | 84.7 µM (inactive) | > 100 µM (inactive)
3 | Cn1c2ccccc2c2ccc3c(c21)C(=O)C=CC3=O | 0.69 µM (active) | 16 µM (inactive) | 19.4 µM (inactive) | 18.4 µM (inactive) | 15.4 µM (inactive) | 1.75 µM (inactive) | 8.65 µM (inactive) | 6.73 µM (inactive) | 5.11 µM (inactive) | 0.755 µM (active) | 12.7 µM (inactive) | 2.96 µM (inactive) | 5.16 µM (inactive) | 1.82 µM (inactive) | 14.1 µM (inactive) | 11.5 µM (inactive) | 16.7 µM (inactive) | 0.796 µM (active) | 3.27 µM (inactive) | 12.1 µM (inactive)
4 | NCCNc1nc(N2CCCC2)c2nc(Cl)c(NCc3ccccc3)nc2n1 | 2.42 µM (inactive) | 1.61 µM (inactive) | 1.73 µM (inactive) | 2.53 µM (inactive) | 1.66 µM (inactive) | 0.122 µM (active) | 1.67 µM (inactive) | 1.33 µM (inactive) | 1.69 µM (inactive) | 2.13 µM (inactive) | 2.14 µM (inactive) | 1.67 µM (inactive) | 13.6 µM (inactive) | 2.16 µM (inactive) | 2.44 µM (inactive) | 1.96 µM (inactive) | 1.72 µM (inactive) | 1.57 µM (inactive) | 1.66 µM (inactive) | 1.75 µM (inactive)
5 | CC(C)OC(=O)c1ccc(CCC2=CC(=O)C=CC2=O)cc1 | 0.697 µM (active) | 15.2 µM (inactive) | 11.5 µM (inactive) | 13 µM (inactive) | 13.9 µM (inactive) | 3.04 µM (inactive) | 15.2 µM (inactive) | 8.93 µM (inactive) | 17.4 µM (inactive) | 2.1 µM (inactive) | 13.2 µM (inactive) | 1.9 µM (inactive) | 7.78 µM (inactive) | 14.8 µM (inactive) | 18 µM (inactive) | 5.45 µM (inactive) | 22.5 µM (inactive) | 2.56 µM (inactive) | 2.17 µM (inactive) | 14.9 µM (inactive)
